Activity calls are given as the source filed them.
What was measured:
Caspase-3 = molecular target: T1, Caspase-3 (Homo sapiens, UniProt P42574); assay type: functional;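 note: Dose-response selectivity test against caspase-3 for candidate inhibitors of sentrin-specific proteases (SENPs)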
T1 sequence (P42574 whole entry): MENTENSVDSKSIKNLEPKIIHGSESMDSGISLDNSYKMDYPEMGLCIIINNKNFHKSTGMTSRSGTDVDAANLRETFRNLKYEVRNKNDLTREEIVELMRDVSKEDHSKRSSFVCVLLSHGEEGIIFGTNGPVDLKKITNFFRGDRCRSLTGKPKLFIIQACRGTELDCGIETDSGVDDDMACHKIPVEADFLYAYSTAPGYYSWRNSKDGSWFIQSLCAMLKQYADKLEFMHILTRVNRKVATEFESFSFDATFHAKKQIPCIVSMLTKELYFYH

[1] = molecular target: T2, Sentrin-specific protease 7 (Homo sapiens, UniProt Q9BQF6); assay type: functional;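 note: Luminescence-based dose-response confirmation of ultra-high-throughput screening hits, measuring inhibition of SENP7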
T2 sequence (Q9BQF6 whole entry): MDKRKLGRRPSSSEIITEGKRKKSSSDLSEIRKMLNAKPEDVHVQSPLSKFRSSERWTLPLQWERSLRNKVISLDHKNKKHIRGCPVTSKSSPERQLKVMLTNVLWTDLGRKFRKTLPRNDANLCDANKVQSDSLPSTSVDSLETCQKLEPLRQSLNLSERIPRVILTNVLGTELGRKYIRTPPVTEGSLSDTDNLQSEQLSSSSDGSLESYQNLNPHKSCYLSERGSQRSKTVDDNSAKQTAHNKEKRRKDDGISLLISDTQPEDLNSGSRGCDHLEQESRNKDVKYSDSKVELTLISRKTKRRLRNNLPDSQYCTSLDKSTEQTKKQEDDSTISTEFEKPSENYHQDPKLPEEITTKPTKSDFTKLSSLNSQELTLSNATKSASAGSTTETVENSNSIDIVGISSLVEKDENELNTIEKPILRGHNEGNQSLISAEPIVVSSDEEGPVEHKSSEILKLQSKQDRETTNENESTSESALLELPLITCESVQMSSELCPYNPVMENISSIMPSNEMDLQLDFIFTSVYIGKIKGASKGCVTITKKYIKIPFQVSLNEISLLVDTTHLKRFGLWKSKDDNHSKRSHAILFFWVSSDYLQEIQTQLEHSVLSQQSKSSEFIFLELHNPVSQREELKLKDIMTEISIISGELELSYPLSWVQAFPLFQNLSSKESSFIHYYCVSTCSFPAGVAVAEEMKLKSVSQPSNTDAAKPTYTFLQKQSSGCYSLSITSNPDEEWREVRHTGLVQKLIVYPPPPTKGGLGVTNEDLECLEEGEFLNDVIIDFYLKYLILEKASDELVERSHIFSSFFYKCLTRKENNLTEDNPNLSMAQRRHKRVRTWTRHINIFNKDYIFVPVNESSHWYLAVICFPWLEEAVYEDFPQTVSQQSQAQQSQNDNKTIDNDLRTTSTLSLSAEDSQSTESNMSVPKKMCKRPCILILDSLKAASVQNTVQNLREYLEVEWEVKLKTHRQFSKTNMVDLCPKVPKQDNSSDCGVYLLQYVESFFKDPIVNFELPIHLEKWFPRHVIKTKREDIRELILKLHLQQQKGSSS

A-375 = experiment: MITF: Counter assay: A375 proliferation Measured in Cell-Based System Using Plate Reader - 2084-03_Inhibitor_Dose_DryPowder_Activity. [Related pubchem assays (depositor defined):AID488944]; assay type: functional; conditions: Homo sapiens
BJ = experiment: BJ-TERT fibroblast viability loss – cell-based, RAS-independent, luminescence, dose response (AID 1933); assay type: functional; conditions: Homo sapiens
Paired box protein Pax-8 = Paired box protein Pax-8 (Homo sapiens, UniProt Q06710); experiment: PAX8 transcriptional activity inhibition in RMG-I – RMG-I cells, luciferase, cherry-pick, dose response (AID 687027); assay type: functional, cell-based;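 note: luciferase reporter driven by Pax8 target thyroperoxidase promoter measured by SteadyGlo luminescence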
[2] = molecular target: T3, Tyrosyl-DNA phosphodiesterase 2 (Homo sapiens, UniProt O95551); experiment: potency against TDP2 phosphodiesterase activity – biochemical, epi absorbance, IC50, dose response (AID 743297)
T3 sequence (O95551 whole entry): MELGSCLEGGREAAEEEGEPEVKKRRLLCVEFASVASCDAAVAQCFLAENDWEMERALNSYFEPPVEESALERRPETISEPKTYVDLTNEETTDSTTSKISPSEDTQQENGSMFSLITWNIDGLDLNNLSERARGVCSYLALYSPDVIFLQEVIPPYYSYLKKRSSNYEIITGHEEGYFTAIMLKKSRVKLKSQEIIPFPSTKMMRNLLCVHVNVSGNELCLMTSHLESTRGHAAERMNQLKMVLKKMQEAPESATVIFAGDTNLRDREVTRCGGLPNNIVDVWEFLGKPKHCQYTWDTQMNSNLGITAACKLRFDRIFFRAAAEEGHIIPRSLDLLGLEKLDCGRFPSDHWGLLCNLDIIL

Nonstructural protein 1 = Nonstructural protein 1 (Influenza A virus, UniProt Q194T2); assay type: functional, Influenza A virus (A/California/07/2009(H1N1))
[3] = molecular target: T4, Heat shock factor protein 1 (Mus musculus, UniProt P38532); experiment: enhancement of HSF1-driven luciferase signal – cell-based, NIH3T3, luminescence, dose retest, confirmation (AID 435004); assay type: functional;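 note: stress induced by proteasome inhibitor MG132 added 30 min after compound; luciferase reporter driven by HSF1 response element in NIH3T3 cells; actives raise luminescence as potentiators of the MG132 stress response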
T4 sequence (P38532 whole entry): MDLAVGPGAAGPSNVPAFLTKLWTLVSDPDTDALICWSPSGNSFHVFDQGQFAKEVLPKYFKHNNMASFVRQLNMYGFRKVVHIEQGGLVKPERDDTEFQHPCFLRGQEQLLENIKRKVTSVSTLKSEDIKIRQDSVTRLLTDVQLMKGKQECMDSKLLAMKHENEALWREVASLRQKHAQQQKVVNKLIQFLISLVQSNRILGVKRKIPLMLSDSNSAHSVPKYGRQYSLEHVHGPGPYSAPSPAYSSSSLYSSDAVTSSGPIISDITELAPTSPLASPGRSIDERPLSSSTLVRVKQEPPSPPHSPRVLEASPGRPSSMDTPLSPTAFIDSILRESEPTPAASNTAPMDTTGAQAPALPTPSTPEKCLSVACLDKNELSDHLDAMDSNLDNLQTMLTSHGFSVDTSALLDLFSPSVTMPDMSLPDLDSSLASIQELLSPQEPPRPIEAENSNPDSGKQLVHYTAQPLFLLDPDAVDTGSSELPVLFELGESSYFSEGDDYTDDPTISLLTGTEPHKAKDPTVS

[4] = molecular target: Protein kinase C theta type (Homo sapiens, UniProt Q04759); experiment: Navigating the Kinome. Panel member name: PRKCQ; assay type: functional
[5] = molecular target: Dual specificity protein kinase CLK2 (Homo sapiens, UniProt P49760); assay type: functional
Activin receptor type-1 = Activin receptor type-1 (Homo sapiens, UniProt Q04771); experiment: Navigating the Kinome. Panel member name: ACVR1; assay type: functional
[6] = molecular target: High affinity nerve growth factor receptor (Homo sapiens, UniProt P04629); assay type: functional;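 note: NTRK1 tested as one member of a kinome-wide profiling panel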
[7] = molecular target: Rho-associated protein kinase 1 (Homo sapiens, UniProt Q13464); assay type: functional;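 note: measured within a broad kinome-wide panel profiling many kinases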
[8] = molecular target: Tyrosine-protein kinase Fyn (Homo sapiens, UniProt P06241); assay type: functional

Chain of Dual specificity protein kinase CLK2 (P49760 whole entry): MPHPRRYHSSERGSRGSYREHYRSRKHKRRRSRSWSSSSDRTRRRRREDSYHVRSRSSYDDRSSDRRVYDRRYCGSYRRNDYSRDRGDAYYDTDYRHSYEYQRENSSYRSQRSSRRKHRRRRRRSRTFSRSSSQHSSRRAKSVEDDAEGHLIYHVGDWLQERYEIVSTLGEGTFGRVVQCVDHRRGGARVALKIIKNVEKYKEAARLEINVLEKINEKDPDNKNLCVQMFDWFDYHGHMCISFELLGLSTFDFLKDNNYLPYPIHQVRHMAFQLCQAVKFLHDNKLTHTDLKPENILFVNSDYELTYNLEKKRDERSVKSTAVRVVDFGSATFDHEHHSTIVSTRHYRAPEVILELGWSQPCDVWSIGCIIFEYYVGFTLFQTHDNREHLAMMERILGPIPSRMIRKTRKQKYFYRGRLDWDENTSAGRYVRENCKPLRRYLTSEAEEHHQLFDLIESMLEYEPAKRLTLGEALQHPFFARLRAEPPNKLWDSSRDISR
Chain of Rho-associated protein kinase 1 (Q13464 whole entry): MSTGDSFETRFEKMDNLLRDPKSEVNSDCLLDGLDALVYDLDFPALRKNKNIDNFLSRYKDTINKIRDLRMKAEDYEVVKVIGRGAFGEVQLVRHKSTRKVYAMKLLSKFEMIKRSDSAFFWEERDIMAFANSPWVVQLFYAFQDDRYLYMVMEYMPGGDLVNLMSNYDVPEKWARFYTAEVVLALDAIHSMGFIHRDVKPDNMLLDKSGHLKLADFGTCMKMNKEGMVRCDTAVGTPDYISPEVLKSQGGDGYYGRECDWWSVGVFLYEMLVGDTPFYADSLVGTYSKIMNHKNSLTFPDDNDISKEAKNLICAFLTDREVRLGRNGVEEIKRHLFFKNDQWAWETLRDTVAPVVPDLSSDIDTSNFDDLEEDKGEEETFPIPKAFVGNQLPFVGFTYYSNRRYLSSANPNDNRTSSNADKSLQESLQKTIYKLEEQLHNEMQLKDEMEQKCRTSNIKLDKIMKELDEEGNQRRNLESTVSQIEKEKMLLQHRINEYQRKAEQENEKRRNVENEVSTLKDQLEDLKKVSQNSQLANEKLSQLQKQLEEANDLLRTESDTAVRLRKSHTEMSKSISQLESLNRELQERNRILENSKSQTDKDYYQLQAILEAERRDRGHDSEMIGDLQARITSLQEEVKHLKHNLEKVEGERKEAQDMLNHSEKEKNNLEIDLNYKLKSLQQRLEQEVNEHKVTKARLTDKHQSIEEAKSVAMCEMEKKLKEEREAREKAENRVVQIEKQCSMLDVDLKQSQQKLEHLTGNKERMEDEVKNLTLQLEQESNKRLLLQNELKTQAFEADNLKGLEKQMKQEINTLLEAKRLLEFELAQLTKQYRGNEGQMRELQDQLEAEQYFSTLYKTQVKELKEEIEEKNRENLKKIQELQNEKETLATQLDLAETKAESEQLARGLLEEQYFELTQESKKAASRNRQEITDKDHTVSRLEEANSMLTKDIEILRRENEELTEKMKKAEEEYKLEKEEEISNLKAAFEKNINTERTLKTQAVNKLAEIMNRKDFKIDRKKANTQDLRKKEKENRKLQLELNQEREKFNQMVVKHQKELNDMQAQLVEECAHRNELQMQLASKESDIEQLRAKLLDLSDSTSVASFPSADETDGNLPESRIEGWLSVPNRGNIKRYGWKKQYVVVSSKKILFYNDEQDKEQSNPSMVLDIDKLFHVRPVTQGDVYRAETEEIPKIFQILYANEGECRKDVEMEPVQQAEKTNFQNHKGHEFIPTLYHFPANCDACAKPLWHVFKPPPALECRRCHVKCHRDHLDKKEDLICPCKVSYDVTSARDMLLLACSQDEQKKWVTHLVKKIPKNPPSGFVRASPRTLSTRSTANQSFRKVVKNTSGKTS
Chain of Paired box protein Pax-8 (Q06710 whole entry): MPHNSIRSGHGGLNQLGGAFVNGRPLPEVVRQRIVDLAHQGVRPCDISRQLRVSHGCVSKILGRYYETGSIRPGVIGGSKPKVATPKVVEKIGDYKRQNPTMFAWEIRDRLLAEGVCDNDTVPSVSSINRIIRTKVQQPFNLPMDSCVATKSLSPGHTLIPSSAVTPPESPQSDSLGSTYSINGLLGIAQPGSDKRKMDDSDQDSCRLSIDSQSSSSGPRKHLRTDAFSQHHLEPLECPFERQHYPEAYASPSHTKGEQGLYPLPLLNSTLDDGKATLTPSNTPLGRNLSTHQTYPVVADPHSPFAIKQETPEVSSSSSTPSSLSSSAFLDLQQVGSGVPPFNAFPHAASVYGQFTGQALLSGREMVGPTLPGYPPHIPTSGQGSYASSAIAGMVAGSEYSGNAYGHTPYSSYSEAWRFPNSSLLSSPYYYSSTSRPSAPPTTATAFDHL
Chain of Protein kinase C theta type (Q04759 whole entry): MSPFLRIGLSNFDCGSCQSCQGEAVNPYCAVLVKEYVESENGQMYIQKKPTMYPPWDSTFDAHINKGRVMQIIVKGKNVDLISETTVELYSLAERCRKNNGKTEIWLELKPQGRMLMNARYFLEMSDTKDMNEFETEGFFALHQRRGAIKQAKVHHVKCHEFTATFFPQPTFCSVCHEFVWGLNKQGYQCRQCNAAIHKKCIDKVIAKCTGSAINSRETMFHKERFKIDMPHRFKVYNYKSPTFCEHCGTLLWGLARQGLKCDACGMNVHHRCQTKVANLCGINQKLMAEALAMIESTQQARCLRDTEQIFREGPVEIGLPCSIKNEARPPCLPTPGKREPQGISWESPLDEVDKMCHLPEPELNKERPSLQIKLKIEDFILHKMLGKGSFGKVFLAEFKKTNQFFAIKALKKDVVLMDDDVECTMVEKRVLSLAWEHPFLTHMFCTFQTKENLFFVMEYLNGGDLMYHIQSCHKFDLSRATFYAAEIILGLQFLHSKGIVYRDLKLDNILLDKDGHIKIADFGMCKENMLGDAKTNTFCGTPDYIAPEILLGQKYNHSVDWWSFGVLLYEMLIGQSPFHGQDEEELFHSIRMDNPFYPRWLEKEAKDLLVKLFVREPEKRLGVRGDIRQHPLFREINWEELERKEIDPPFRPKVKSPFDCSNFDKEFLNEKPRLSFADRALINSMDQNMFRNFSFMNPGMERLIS
Chain of High affinity nerve growth factor receptor (P04629 whole entry): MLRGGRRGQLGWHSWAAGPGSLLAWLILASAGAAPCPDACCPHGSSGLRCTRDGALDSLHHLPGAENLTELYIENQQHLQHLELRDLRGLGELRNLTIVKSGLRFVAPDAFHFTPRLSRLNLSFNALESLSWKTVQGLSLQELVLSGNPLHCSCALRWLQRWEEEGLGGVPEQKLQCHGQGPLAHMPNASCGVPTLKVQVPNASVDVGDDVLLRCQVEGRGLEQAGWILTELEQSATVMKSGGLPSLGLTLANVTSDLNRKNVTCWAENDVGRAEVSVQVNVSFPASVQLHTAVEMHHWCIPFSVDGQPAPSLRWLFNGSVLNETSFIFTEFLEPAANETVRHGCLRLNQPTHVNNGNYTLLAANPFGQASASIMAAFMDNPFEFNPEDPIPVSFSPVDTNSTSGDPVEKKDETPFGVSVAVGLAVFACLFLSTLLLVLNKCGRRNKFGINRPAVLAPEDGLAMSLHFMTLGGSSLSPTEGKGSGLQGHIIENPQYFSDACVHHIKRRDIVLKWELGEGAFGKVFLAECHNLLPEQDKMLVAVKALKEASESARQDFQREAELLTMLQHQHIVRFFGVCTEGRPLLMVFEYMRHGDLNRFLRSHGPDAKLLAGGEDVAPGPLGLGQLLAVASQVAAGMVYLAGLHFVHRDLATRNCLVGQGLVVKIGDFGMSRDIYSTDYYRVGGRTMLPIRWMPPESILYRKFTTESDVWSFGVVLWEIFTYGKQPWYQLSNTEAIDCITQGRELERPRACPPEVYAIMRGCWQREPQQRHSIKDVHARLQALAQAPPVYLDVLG
Chain of Nonstructural protein 1 (Q194T2 whole entry): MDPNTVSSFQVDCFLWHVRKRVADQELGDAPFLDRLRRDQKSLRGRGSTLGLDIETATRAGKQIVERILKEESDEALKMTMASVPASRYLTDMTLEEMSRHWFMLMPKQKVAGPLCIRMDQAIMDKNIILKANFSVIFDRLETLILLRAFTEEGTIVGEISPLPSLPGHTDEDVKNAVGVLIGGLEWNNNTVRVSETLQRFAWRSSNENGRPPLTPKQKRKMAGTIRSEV
Chain of Activin receptor type-1 (Q04771 whole entry): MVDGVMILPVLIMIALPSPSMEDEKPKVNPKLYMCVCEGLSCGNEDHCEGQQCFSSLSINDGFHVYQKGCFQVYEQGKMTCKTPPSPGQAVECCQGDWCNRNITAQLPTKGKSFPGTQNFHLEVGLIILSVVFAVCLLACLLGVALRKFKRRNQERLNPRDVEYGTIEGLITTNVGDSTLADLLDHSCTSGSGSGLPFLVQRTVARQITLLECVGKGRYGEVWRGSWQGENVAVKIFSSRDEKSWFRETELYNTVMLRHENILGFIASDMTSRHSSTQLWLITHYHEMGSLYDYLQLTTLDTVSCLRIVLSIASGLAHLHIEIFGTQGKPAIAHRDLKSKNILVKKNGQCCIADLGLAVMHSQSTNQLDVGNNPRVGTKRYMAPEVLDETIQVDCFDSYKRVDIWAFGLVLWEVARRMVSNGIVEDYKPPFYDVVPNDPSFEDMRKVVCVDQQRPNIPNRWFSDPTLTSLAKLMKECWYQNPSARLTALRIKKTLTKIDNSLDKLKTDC

**Q.** `CCc1cc[n+](C2=C([N-]S(=O)(=O)c3cccs3)C(=O)c3ccccc3C2=O)cc1` was tested. Which IC50 (Caspase-3) did it give?
**A.** 12.5 µM (active)

**Q.** What about the IC50 [1] of the same compound?
**A.** 8.3 µM (active)

**Q.** What about the AC50 (A-375) of the same compound?
**A.** 35.4 µM (active)

**Q.** Which results are given for `O=C(NC1=C(NC2CCS(=O)(=O)C2)C(=O)c2ccccc2C1=O)c1ccccc1` (stereo not drawn)?
**A.** EC50 (BJ): 11 µM (inconclusive); AC50 (Paired box protein Pax-8): 6.4 µM (active); IC50 [2]: 28.3 µM (inactive)

**Q.** For `CCCC(=O)NC(c1ccc(N(C)C)cc1)c1ccc2cccnc2c1O` (stereo not drawn), which EC50 (BJ) is on record?
**A.** 2.5 µM (active)

**Q.** What about the IC50 (Nonstructural protein 1) of the same compound?
**A.** 17.7 µM (active)

**Q.** And the EC50 [3]?
**A.** > 260 µM (inactive)

**Q.** Which Ki [4] does the source give for `O=C1NC(=O)C(c2c[nH]c3ccccc23)=C1c1nc(N2CCNCC2)nc2ccccc12` here?
**A.** 0.000316 µM (active)

**Q.** What about the Ki [5] of the same compound?
**A.** > 2.51 µM (inactive)

**Q.** And the Ki (Activin receptor type-1)?
**A.** > 3.98 µM (inactive)

**Q.** And the Ki [6]?
**A.** 2.51 µM (active)

**Q.** And the Ki [7]?
**A.** > 2 µM (inactive)

**Q.** What about the Ki [8] of the same compound?
**A.** > 6.31 µM (inactive)

**Q.** What does the source list for `COc1ccccc1N(/N=C1\Sc2ccccc2C1=O)C(C)=O`?
**A.** IC50 (Caspase-3): 27.8 µM (active); IC50 [1]: 6.78 µM (active); IC50 [2]: 20 µM (inactive)

Source: ChEMBL document CHEMBL1201862, “PubChem BioAssay data set” (2004)
